Laboratory results: patent US4619938A, “Fatty acid derivatives of aminoalkyl nicotinic acid esters and platelet aggregation inhibitors” (Terumo Kabushiki Kaisha, priority 1984, dated 1986)
Where two headings read alike, the source gives them in different places.

What was measured:
[1] = system: platelet aggregation caused by collagen (platelet-rich plasma); test: Platelet aggregation-inhibitory action, collagen (20 μg/ml) induced, Born's turbidometric method; type: cell-based, rabbit; details: Oryctolagus cuniculus, 0.05 h, read-out: 50% inhibitory concentration, Collagen
Description: (§1) Blood was drawn from the carotid artery of a rabbit using a syringe containing 3.8% solution of sodium citrate in an amount of […] per volume of the solution. The blood was centrifuged to obtain platelet-rich plasma (PRP: 5×10^5 platelets/μl).
(§2) In a cuvette was placed 250 μl of the PRP, which is warmed in a constant-temperature bath at 37° C. for 2 min. To the warmed cuvette was added 20 μl of a solution of an alkanolamine derivative to be tested (a […] ethanol solution which had been diluted with Trisbuffered isotonic saline solution). The mixture was then incubated for 3 min., followed by addition of a aggregation inducer, an arachidonic acid solution or a collagen solution. Measurement of the platelet aggregation was made by Born's turbidometric method (e.g., described in J. Physiol., Vol. 168, P. 178, 1968). The 50% inhibitory concentration for the platelet aggregation caused by arachidonic acid (100 μM) or collagen (20 μg/ml) is given in Table 1 with reference to Aspirin for comparison.
(§3) The 50% inhibitory concentration as shown in the table means the concentration of an alkanolamine derivative required for inhibiting aggregation ability of the platelets to 50% when the aggregation ability of the platelets in the absence of the alkanolamine derivative of the invention is taken as 100%.

[2] = system: platelet aggregation caused by arachidonic acid (platelet-rich plasma); test: Platelet aggregation-inhibitory action, arachidonic acid (100 μM) induced, Born's turbidometric method; type: cell-based, rabbit; details: Oryctolagus cuniculus, 0.05 h, read-out: 50% inhibitory concentration, Arachidonic acid
Description: as §1, §2, §3

[3] = rabbit PRP, 37° C., 3 min. incubation, collagen 20 μg/ml
[4] = rabbit PRP, 37° C., 3 min. incubation, arachidonic acid 100 μM

Structure (SMILES): CC(=O)Oc1ccccc1C(=O)O [Aspirin, reference compound]
- IC50 [1]: 13.6 µM
- IC50 [2]: 14 µM

Structure (SMILES): CC/C=C\C/C=C\C/C=C\C/C=C\C/C=C\CCCC(=O)NCCO [Example 1, N-5,8,11,14,17-eicosapentaenoyl-2-aminoethanol]
- IC50 [1, 3]: 98 µM
- IC50 [2, 4]: 22 µM

Structure (SMILES): CC/C=C\C/C=C\C/C=C\C/C=C\C/C=C\CCCC(=O)OCCNC(=O)c1cccnc1 [Example 2, N-nicotinoyl-2-aminoethyl 5,8,11,14,17-eicosapentaenoate]
- IC50 [1, 3]: 93 µM
- IC50 [2, 4]: 11 µM

Structure (SMILES): CC/C=C\C/C=C\C/C=C\CCCCCCCC(=O)OCCNC(=O)c1cccnc1 [Example 3, N-nicotinoyl-2-aminoethyl 9,12,15-octadecatrienoate]
- IC50 [1, 3]: 140 µM
- IC50 [2, 4]: 49 µM

Structure (SMILES): CCCCC/C=C\C/C=C\C/C=C\CCCCC(=O)OCCNC(=O)c1cccnc1 [Example 4, N-nicotinoyl-2-aminoethyl 6,9,12-octadecatrienoate]
- IC50 [1, 3]: 190 µM
- IC50 [2, 4]: 36 µM

Structure (SMILES): CC/C=C\C/C=C\C/C=C\C/C=C\C/C=C\CCCC(=O)NCCOC(=O)c1cccnc1 [Example 5, N-5,8,11,14,17-eicosapentaenoyl-2-aminoethyl nicotinate]
- IC50 [1, 3]: 90 µM
- IC50 [2, 4]: 8.8 µM

Structure (SMILES): CC/C=C\C/C=C\C/C=C\C/C=C\C/C=C\CCCC(=O)N(CC)CCO [Example 6, N-ethyl-N-5,8,11,14,17-eicosapentaenoyl-2-aminoethanol]
- IC50 [1, 3]: 273 µM
- IC50 [2, 4]: 3.57 µM

Structure (SMILES): CC/C=C\C/C=C\C/C=C\C/C=C\C/C=C\CCCC(=O)N(CCO)CCCC [Example 7, N-butyl-N-5,8,11,14,17-eicosapentaenoyl-2-aminoethanol]
- IC50 [1, 3]: 187 µM
- IC50 [2, 4]: 3.55 µM

Structure (SMILES): CC/C=C\C/C=C\C/C=C\C/C=C\C/C=C\CCCC(=O)N(C)CCOC(=O)c1cccnc1 [Example 8, N-methyl-N-5,8,11, 14,17-eicosapentaenoyl-2-aminoethylnicotinate]
- IC50 [1, 3]: 111 µM
- IC50 [2, 4]: 6.62 µM

Structure (SMILES): CC/C=C\C/C=C\C/C=C\CCCCCCCC(=O)N(C)CCOC(=O)c1cccnc1 [Example 9, N-methyl-N-9,12,15-octadecatrienoyl-2-aminoethylnicotinate]
- IC50 [1, 3]: 273 µM
- IC50 [2, 4]: 8.24 µM

Structure (SMILES): CC/C=C\C/C=C\C/C=C\C/C=C\C/C=C\CCCC(=O)N(CC)CCOC(=O)c1cccnc1 [Example 10, N-ethyl-N-5,8,11,14,17-eicosapentaenoyl-2-aminoethylnicotinate]
- IC50 [1, 3]: 91.7 µM
- IC50 [2, 4]: 4.99 µM

Structure (SMILES): CC/C=C\C/C=C\C/C=C\C/C=C\C/C=C\CCCC(=O)N(CCCC)CCOC(=O)c1cccnc1 [Example 11, N-butyl-N-5,8,11,14,17-eicosapentaenoyl-2-aminoethylnicotinate]
- IC50 [1, 3]: 197 µM
- IC50 [2, 4]: 6.03 µM

Structure (SMILES): CC/C=C\C/C=C\C/C=C\C/C=C\C/C=C\CCCC(=O)NCCCOC(=O)c1cccnc1 [Example 12, N-5,8,11,14,17-eicosapentaenoyl-3-aminopropylnicotinate]
- IC50 [1, 3]: 55.3 µM
- IC50 [2, 4]: 3.44 µM

Structure (SMILES): CC/C=C\C/C=C\C/C=C\C/C=C\C/C=C\CCCC(=O)OCCN(CC)C(=O)c1cccnc1 [Example 13, (N-ethyl-N-nicotinoyl-2-aminoethyl)-5,8,11,14,17-eicosapentaenoate]
- IC50 [1, 3]: 401 µM
- IC50 [2, 4]: 255 µM

Structure (SMILES): CC/C=C\C/C=C\C/C=C\C/C=C\C/C=C\CCCC(=O)N(C)CCOCc1cccnc1 [Example 14, [N-methyl-N-(5,8,11,14,17-eicosapentaenoyl)-2-aminoethyl]-β-picolylether]
- IC50 [1, 3]: 50.1 µM
- IC50 [2, 4]: 5.68 µM

Structure (SMILES): CC/C=C\C/C=C\C/C=C\C/C=C\C/C=C\CCCC(=O)N(CCCC)CCOCc1cccnc1 [Example 15]
- IC50 [1, 3]: 123 µM
- IC50 [2, 4]: 7.07 µM

Structure (SMILES): CC/C=C\C/C=C\C/C=C\C/C=C\C/C=C\CCCC(=O)NCCOCc1cccnc1 [Example 16, (N-5,8,11,14,17-eicosapentaenoyl)-2-aminoethyl β-picolyl ether]
- IC50 [1, 3]: 50.1 µM
- IC50 [2, 4]: 5.68 µM

Structure (SMILES): CC/C=C\C/C=C\C/C=C\CCCCCCCC(=O)NCCCOCc1cccnc1 [Example 17, (N-9,12,15-octadecatrienoyl)-3-aminopropyl β-picolylether]
- IC50 [1, 3]: 123 µM
- IC50 [2, 4]: 7.07 µM
